Among the data in the METLIN SMRT retention time set (Domingo-Almenara et al. 2019) are RP-LC retention time values, retold here.

Structures are written as SMILES.

The data set can be described thus: gradient 5% acetonitrile 3 min, to 50% in 2 min, to 85% in 15 min, held 3 min, 100 µL/min. As to conditions: column: Zorbax Extend-C18 2.1 x 50 mm; eluents: water / acetonitrile, 0.1% formic acid. Summed up:
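Pure standards were run in mixtures of ~100 molecules by HPLC coupled to a quadrupole time-of-flight mass spectrometer. The column was a Zorbax Extend-C18 (2.1 × 50 mm, 1.8 μm) at 100 μL/min, with water and acetonitrile each containing 0.1% formic acid, in positive and negative ionization mode. Dead and dwell volumes were 40 μL and 900 μL. Retention time was taken from computationally picked adduct peaks, each manually inspected, with data collected over 3 months.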
Take `CCCn1cc(S(=O)(=O)Nc2ccc(F)cc2)c2cccnc21`: the RP-LC retention time worked out at 858 s. The compound `O=C(NC1CCCCC1)N1CCC(c2noc(-c3ccccn3)n2)C1` (stereo not drawn) showed an RP-LC retention time of 734 s.

`COCCNC(=O)c1cc2c(s1)N(C)CCC2` showed an RP-LC retention time of 703 s.

For `Cn1c(C(=O)NCC2CCCO2)cc2c1CCN(Cc1cccc(F)c1)C2` (stereo not drawn), the RP-LC retention time is 618 s. Then `Cc1ccc(N2C(=O)C3N=NN(Cc4nc(-c5ccccc5)no4)C3C2=O)cc1C` (stereo not drawn), with 1020 s; and `CCNC(=O)c1sc2nc(-c3ccccc3)c(NCCOC)n2c1C`, with 712 s; and `Cc1nc2n(c(=O)c1C)CCN2CC(=O)NCc1cccs1`, with 619 s.

The compound `Cn1cc(CCN2CCC(C(=O)NCc3ccc4c(c3)OCO4)CC2)c2cccnc21` registered an RP-LC retention time of 584 s.

As to `Cc1ccccc1C1CC(=O)c2cnc(N3CCC(C(N)=O)CC3)nc2C1` (stereo not drawn), the RP-LC retention time turned out to be 750 s.

Take `O=C(NCc1cnoc1-c1ccc(F)cc1)c1ccccc1`: the RP-LC retention time was 844 s.

Compound `CCn1cnnc1C1CCCCN1S(=O)(=O)c1cccc(F)c1` (stereo not drawn) returned an RP-LC retention time of 716 s. The value for `CC1=C(C(=O)OC(C)C)C(c2cc3c(cc2Br)OCO3)NC(=O)N1` (stereo not drawn) was 748 s. In the case of `Cc1ccc(C)c(NC(=O)C2CC(=O)N(CCc3c[nH]c4ccc(F)cc34)C2)c1` (stereo not drawn), the RP-LC retention time was found to be 586 s. In turn, `Cc1ccc(OCC(=O)Nc2cc3c(cc2N2CCOCC2)n(C)c(=O)c(=O)n3C)c(C)c1` displayed an RP-LC retention time of 787 s.

As to `Cc1ccc(-c2noc(-c3ccccc3S(=O)(=O)N3CC=C(c4ccccc4)CC3)n2)cc1`, the RP-LC retention time was found to be 1350 s.

`O=C(NC1CCN(Cc2ccccc2)CC1)c1cc2n(n1)CCCN(Cc1ccc(F)cc1)C2=O` returned an RP-LC retention time of 658 s. Compound `CCc1ccc(N2CC(c3nc(-c4ccc(OC)cc4OC)no3)CC2=O)cc1` (stereo not drawn) yielded an RP-LC retention time of 998 s. The value for `Cc1cc(F)ccc1NS(=O)(=O)c1cc(-c2[nH]ncc2C(=O)N(C)C)oc1C` was 697 s. On to `COc1ccc(-c2noc(-c3nn(-c4ccc(C)cc4)ccc3=O)n2)cc1`, for which the RP-LC retention time is 919 s. `O=C([C@@H]1C[C@H](F)CN1C(=O)c1ccccc1)N1CCCCC1` returned an RP-LC retention time of 668 s.

`CC(C)(C)NC(=O)N1CCC(CNC(=O)C(=O)NCCC2=CCCCC2)CC1` came in with an RP-LC retention time of 818 s. `CCc1ccc(S(=O)(=O)N2CCC3(CC2)NCCN=C3NCc2cccc(F)c2)cc1` showed an RP-LC retention time of 772 s. `CC1=C(c2ccc(F)cc2)S(=O)(=O)N=C1N1CCCN(C(=O)CC2CCCC2)CC1` returned an RP-LC retention time of 883 s.

`O=C(Cc1ccccc1Cl)N1CCN(c2ccc3nncn3n2)CC1` came in with an RP-LC retention time of 628 s. For `Cc1noc(C)c1C(=O)N1CCCC1c1ccc(Cl)cc1` (stereo not drawn), the RP-LC retention time is 855 s.

`Cc1ccc(Nc2c(-c3ccc(N(C)C)cc3)nc3cnccn23)c(Br)c1` yielded an RP-LC retention time of 990 s. `Cc1ccc(Nc2c(-c3ccc(O)cc3)nc3c(C)cccn23)cc1` showed an RP-LC retention time of 676 s.

As for `CCOC(=O)c1cc(S(=O)(=O)N2CCCC2C(=O)N2CCCCC2)cn1C` (stereo not drawn), the RP-LC retention time was found to be 767 s.

On to `Cc1[nH]c(C)c(S(=O)(=O)N2CCC(C(=O)NC3CCCCCC3)CC2)c1C(=O)N1CCCC1`, for which the RP-LC retention time turned out to be 702 s. With `O=C(NCC1CCCO1)c1n[nH]c2c1CCCCCC2` (stereo not drawn), the RP-LC retention time was 724 s.

In the case of `CCC(C)N(CC(=O)N(Cc1ccco1)CC1CCCO1)C(=O)c1ccc(OC)cc1` (stereo not drawn), the RP-LC retention time was found to be 808 s.

Regarding `O=c1c2nnc3c(-c4ccc(F)cc4)cnn3c2ccn1CCc1c[nH]c2ccc(F)cc12`, the RP-LC retention time worked out at 950 s. Then `C[C@@H]1CCC2(NC1)O[C@H]1C[C@H]3[C@@H]4CC=C5C[C@@H](O)CC[C@]5(C)[C@H]4CC[C@]3(C)[C@H]1[C@H]2C` (stereo partly drawn), with 757 s. `O=C(c1cnn(-c2cccc(F)c2)c1-n1cccc1)N1CCN(c2ccccn2)CC1` returned an RP-LC retention time of 664 s. The value for `CCC(C)n1c(=O)c2ccccc2n(Cc2nc(-c3cccc(C(F)(F)F)c3)no2)c1=O` (stereo not drawn) was 1300 s; that for `CN1CCN(c2ccccc2NC(=O)C2CCCN(c3ncnc4c3nc3n4CCCCC3)C2)CC1` (stereo not drawn) was 635 s; that for `CC(C)CC(NC(=O)Cc1ccc(Cl)cc1)C(=O)Nc1nc2ccccc2[nH]1` (stereo not drawn) was 767 s. On to `O=C(NCc1ccc2c(c1)OCO2)C1CCN(c2ccc(SCc3ccccc3)nn2)CC1`, for which the RP-LC retention time amounted to 742 s. The value for `O=C(Cn1nc2c(cc1=O)CCCC2)Nc1nc(-c2ccc3c(c2)OCCCO3)cs1` was 862 s; that for `CCOc1ccc(-c2cc3c(=O)n(Cc4nc(-c5ccccc5OCC)no4)ncn3n2)cc1` was 1180 s.

The compound `Cc1ccc(C)c(-c2csc(NC(=O)c3ccc(C)o3)n2)c1` returned an RP-LC retention time of 1100 s. The value for `CCN1C(=O)COc2ccc(-c3nc(NC(=O)CCC4CCCCC4)sc3C)cc21` was 1240 s. The value for `COc1ccc(OC)c(NC(=O)C2CCN(c3cc(N4CCSCC4)ncn3)CC2)c1` was 694 s; that for `CCOC(=O)N1CCN(C(=O)c2nn(-c3ccccc3C)c(=O)cc2OC)CC1` was 663 s; that for `COc1cc(Cl)c(NC(=O)CN2C(=O)CN(C)C(=O)c3ccccc32)c(OC)c1` was 717 s. On to `O=C(NCC1(c2cccs2)CC1)c1cnccn1`, for which the RP-LC retention time came to 736 s.

`CN(C)S(=O)(=O)c1ccc(-c2nnc(NC(=O)c3ccc4ncsc4c3)o2)cc1` came in with an RP-LC retention time of 669 s. With `CN(CC(=O)N1CCN(C2CCCCC2)CC1)S(=O)(=O)c1ccc2c(c1)CCCC(=O)N2`, the RP-LC retention time is 602 s. Compound `Cc1sc(NC(=O)C2CC2)nc1-c1ccc2c(c1)N(C)C(=O)CO2` gave an RP-LC retention time of 811 s. Regarding `COc1cccc(-n2cc(C(=O)OCc3ccco3)c3ccccc3c2=O)c1`, the RP-LC retention time was determined as 1100 s. `CCOc1ccccc1C(=O)N1CCc2c(c(-c3nc(C4CC4)no3)nn2C)C1` showed an RP-LC retention time of 828 s.

The compound `Cn1cc(C2=CCN(C(=O)c3cccc(F)c3)CC2)c2cccnc21` came in with an RP-LC retention time of 816 s. Consider `COc1ccc(S(=O)(=O)N2CCCC(C(=O)NC(C)C)C2)cc1OC` (stereo not drawn), for which the RP-LC retention time was found to be 720 s. Then `Cc1ccc(CNC(=O)C2(C)Cn3cnc(C(=O)NCCc4ccccc4)c3C(=O)N2C2CC2)cc1` (stereo not drawn), with 816 s; and `Cc1cc(C)cc(NC(=O)Cn2nc(N3CCCC3)c3ccccc3c2=O)c1`, with 1010 s; and `O=C(NC1CC1)C1CCN(c2nc3ccc(-c4ccc(F)cc4)nc3s2)CC1`, with 878 s. Compound `O=C(Nc1cccc(Cl)c1)c1nnc(COCC(=O)N2CCN(c3ccccn3)CC2)s1` yielded an RP-LC retention time of 657 s.

As to `COc1cccc(-c2c(C(=O)O)nnn2-c2ccc3c(c2)OCO3)c1`, the RP-LC retention time amounted to 743 s. The compound `COc1ccccc1-c1cc(C(=O)N2CCN(c3ncccn3)CC2)c2ccccc2n1` came in with an RP-LC retention time of 803 s. In the case of `COc1ccccc1CNC1=NCCNC12CCN(S(=O)(=O)c1ccc(Cl)cc1)CC2`, the RP-LC retention time was 750 s. `CCn1cc(-c2nc(C)c(C(=O)Nc3cc(OC)ccc3OC)s2)c2cccnc21` registered an RP-LC retention time of 1130 s.

`C[C@@H]1COCCN1c1cc(C2(S(C)(=O)=O)CC2)nc(-c2cccc3[nH]ccc23)n1` had an RP-LC retention time of 775 s. As for `COc1ccccc1N1CCN(Cc2nc(-c3ccc(N4CCC(C)CC4)nc3)no2)CC1`, the RP-LC retention time came to 882 s. Then `O=C1NC(=O)/C(=C/c2ccc(-c3ccc(F)cc3O)o2)S1`, with 923 s; and `COc1ccc(S(=O)(=O)N2CCCC(C(=O)Nc3cccc(SC)c3)C2)cc1C` (stereo not drawn), with 1030 s. Regarding `CC(C)N1C(=O)C(C)(C(=O)Nc2cccc(Cl)c2)Oc2cccnc21` (stereo not drawn), the RP-LC retention time amounted to 1070 s. In the case of `COc1ccc(-c2noc(C3CCCN3C(=O)Nc3ccccc3C(F)(F)F)n2)cc1` (stereo not drawn), the RP-LC retention time is 1010 s.

`CCOC(=O)C1=C(CN2CCN(C(C)CC)CC2)NC(=O)NC1c1ccc(F)cc1` (stereo not drawn) displayed an RP-LC retention time of 623 s. As to `CCOC(=O)C1CCc2sc(NC(=O)c3n[nH]c4ccccc34)nc21` (stereo not drawn), the RP-LC retention time is 852 s.

Consider `CCCC(C)C(=O)N1CC2CN(S(=O)(=O)c3ccccc3)CC(C1)O2` (stereo not drawn), for which the RP-LC retention time amounted to 807 s.

Consider `CCNC(=O)c1ccc(-c2nc3cc(NS(=O)(=O)c4ccc(C(C)C)cc4)ccc3n2C)cc1`, for which the RP-LC retention time is 744 s.

The compound `CCNC(=O)C1CCc2sc(C(=O)N3CCCCCC3)cc2C1` (stereo not drawn) gave an RP-LC retention time of 748 s.

The compound `Cc1cnc(C2CC2)n1CCNS(=O)(=O)c1cc(F)cc(F)c1` showed an RP-LC retention time of 615 s. Turning to `C#CCC(Cc1cnc2nc(N)nc(N)c2n1)c1ccc(C(=O)N[C@@H](CCC(=O)O)C(=O)O)cc1` (stereo partly drawn), the RP-LC retention time is 619 s. The value for `CN1C(=O)CCc2cc(NC(=O)c3ccsc3)ccc21` was 691 s. With `COc1ccc(OC)c(-c2nnc(NC(=O)CSc3ccc(Cl)cc3)s2)c1`, the RP-LC retention time stood at 947 s.

With `Cc1ccccc1-c1nc(-c2ccc3c(c2)oc(=O)n3C(C)C)no1`, the RP-LC retention time was 1270 s. `Cc1nc2ccc(C(=O)NC(C)C)cc2nc1C`: the RP-LC retention time came out at 649 s.
